Reference: the NIST ThermoML archive (doi:10.1021/je050538q)

Legend:
[1] = Liquid
[2] = refractive index (Na D-line) (dimensionless); conditions: 298.15 K; 101.33 kPa; Liquid
[3] = xn = mol fraction of the nth substance listed; conditions: 298.15 K, 101 kPa, Liquid
[4] = refractive index (Na D-line) (dimensionless); xn = mol fraction of the nth substance listed; conditions: 298.15 K, 101 kPa, Liquid

CCC(C)(C)O [2-methylbutan-2-ol]
[1], 298.15 K, 101 kPa
Conditions	mass density [kg/m3]	viscosity [mPa·s]
–	804.98	3.645

Conditions	viscosity [mPa·s]
[1], 303.15 K, 101.33 kPa, Capillary tube (Ostwald / Ubbelohde) method	2.81

Conditions	refractive index
[2]	1.4025

CCC(C)(C)O [2-methylbutan-2-ol] + CC(=O)N(C)C
Conditions	mass density, [3] [kg/m3]	refractive index, [4]	viscosity, [3] [mPa·s]
x2 = 0	804.98	1.4025	3.645
x2 = 0.0112	806.65	1.4031	3.6
x2 = 0.0284	809.1	1.404	3.533
x2 = 0.0423	810.93	1.4046	3.48
x2 = 0.0681	814.29	1.4058	3.381
x2 = 0.1023	818.47	1.4072	3.254
x2 = 0.1613	825.31	1.4095	3.041
x2 = 0.2112	830.81	1.4113	2.87
x2 = 0.253	835.39	1.4128	2.731
x2 = 0.2912	839.58	1.4141	2.608
x2 = 0.3366	844.6	1.4156	2.467
x2 = 0.3844	850.11	1.4171	2.325
x2 = 0.4203	854.29	1.4182	2.221
x2 = 0.4743	860.87	1.4198	2.071
x2 = 0.5864	875.18	1.423	1.78
x2 = 0.6721	886.7	1.4254	1.578
x2 = 0.7474	897.47	1.4276	1.413
x2 = 0.8321	910.06	1.4302	1.242
x2 = 0.9168	923.22	1.4329	1.086
x2 = 0.954	929.18	1.4341	1.021

CCC(C)(C)O [2-methylbutan-2-ol] + CCOC(C)=O
Conditions	mass density, [3] [kg/m3]	refractive index, [4]	viscosity, [3] [mPa·s]
x1 = 0.0279	891.15	1.3711	0.464
x1 = 0.0573	887.59	1.3723	0.508
x1 = 0.096	883.06	1.3739	0.567
x1 = 0.1672	874.97	1.3767	0.691
x1 = 0.2475	866.39	1.3798	0.85
x1 = 0.3322	857.83	1.383	1.041
x1 = 0.4168	849.81	1.3861	1.261
x1 = 0.4994	842.59	1.3891	1.503
x1 = 0.5831	835.67	1.3919	1.776
x1 = 0.6658	829.16	1.3946	2.078
x1 = 0.7486	822.86	1.397	2.412
x1 = 0.8336	816.62	1.3993	2.791
x1 = 0.9149	810.81	1.4011	3.188
x1 = 0.9445	808.73	1.4017	3.344
x1 = 0.9712	806.91	1.4021	3.486
x1 = 1	804.98	1.4025	3.645

CC(=O)N(C)C [N,N-dimethylethanamide]
[1], 298.15 K, 101 kPa
Conditions	mass density [kg/m3]	viscosity [mPa·s]
–	936.7	0.945

Conditions	refractive index
[2]	1.4357

CC(=O)N(C)C [N,N-dimethylethanamide] + CCC(C)(C)O
x1 = 1
Conditions	mass density [kg/m3]	refractive index	viscosity [mPa·s]
[3]	936.7	–	0.945
[4]	–	1.4357	–

CC(=O)N(C)C [N,N-dimethylethanamide] + CCOC(C)=O
Conditions	mass density, [3] [kg/m3]	refractive index, [4]	viscosity, [3] [mPa·s]
x1 = 0.0392	896.84	1.3731	0.442
x1 = 0.0791	898.95	1.3763	0.458
x1 = 0.156	902.75	1.3824	0.49
x1 = 0.2331	906.43	1.3883	0.523
x1 = 0.3109	909.97	1.3942	0.558
x1 = 0.3875	913.34	1.3999	0.595
x1 = 0.4646	916.63	1.4054	0.634
x1 = 0.541	919.8	1.4106	0.674
x1 = 0.6137	922.68	1.4153	0.713
x1 = 0.6931	925.71	1.4201	0.757
x1 = 0.7718	928.62	1.4246	0.803
x1 = 0.8145	930.15	1.4269	0.828
x1 = 0.8896	932.81	1.4307	0.874
x1 = 0.9558	935.14	1.4338	0.916
x1 = 1	936.7	1.4357	0.945

CCOC(C)=O [ethyl acetate]
[1], 298.15 K, 101 kPa
Conditions	mass density [kg/m3]	viscosity [mPa·s]
–	894.6	0.426

Conditions	refractive index
[2]	1.3699

CCOC(C)=O [ethyl acetate] + CC(=O)N(C)C
x2 = 0
Conditions	mass density [kg/m3]	refractive index	viscosity [mPa·s]
[3]	894.6	–	0.426
[4]	–	1.3699	–

CCOC(C)=O [ethyl acetate] + CCC(C)(C)O
x2 = 0
Conditions	mass density [kg/m3]	refractive index	viscosity [mPa·s]
[3]	894.6	–	0.426
[4]	–	1.3699	–
